Test results as given in ChEMBL document CHEMBL4196087 (Eur J Med Chem, 2018).

Legend:
HL-60 = assay: Antiproliferative activity against human HL60 cells after 48 hrs by MTT assay; type: functional, cell-based; conditions: HL-60, 48 h
NCI-H226 [1] = assay: Antiproliferative activity against human NCI-H226 cells after 48 hrs by MTT assay; type: functional, cell-based; conditions: NCI-H226, 48 h
IGROV-1 [2] = assay: Antiproliferative activity against human IGROV1 cells after 48 hrs by MTT assay; type: functional, cell-based; conditions: IGROV-1, 48 h
UO-31 [3] = assay: Antiproliferative activity against human UO31 cells after 48 hrs by MTT assay; type: functional, cell-based; conditions: UO-31, 48 h
MDA-MB-468 [4] = assay: Antiproliferative activity against human MDA-MB-468 cells after 48 hrs by MTT assay; type: functional, cell-based; conditions: MDA-MB-468, 48 h
UO-31 [5] = assay: Induction of apoptosis in human UO31 cells assessed as caspase-3 activation by measuring active caspase-3 level at 6.44 uM by […] (reference value: 66 pg/ml); type: functional
CCRF-CEM = assay: Growth inhibition of human CCRF-CEM cells at 10^-5 M incubated for 48 hrs by sulforhodamine B assay relative to control; type: functional; conditions: read-out: GI
HL-60(TB) = assay: Growth inhibition of human HL-60(TB) cells at 10^-5 M incubated for 48 hrs by sulforhodamine B assay relative to control; type: functional; conditions: HL-60, 48 h, read-out: GI
K562 = assay: Growth inhibition of human K562 cells at 10^-5 M incubated for 48 hrs by sulforhodamine B assay relative to control; type: functional; conditions: K562, 48 h, read-out: GI
MOLT-4 = assay: Growth inhibition of human MOLT4 cells at 10^-5 M incubated for 48 hrs by sulforhodamine B assay relative to control; type: functional; conditions: MOLT-4, 48 h, read-out: GI
RPMI-8226 = assay: Growth inhibition of human RPMI8226 cells at 10^-5 M incubated for 48 hrs by sulforhodamine B assay relative to control; type: functional; conditions: RPMI-8226, 48 h, read-out: GI
HOP-62 = assay: Growth inhibition of human HOP62 cells at 10^-5 M incubated for 48 hrs by sulforhodamine B assay relative to control; type: functional; conditions: HOP-62, 48 h, read-out: GI
HOP-92 = assay: Growth inhibition of human HOP92 cells at 10^-5 M incubated for 48 hrs by sulforhodamine B assay relative to control; type: functional; conditions: HOP-92, 48 h, read-out: GI
NCI-H226 [6] = assay: Growth inhibition of human NCI-H226 cells at 10^-5 M incubated for 48 hrs by sulforhodamine B assay relative to control; type: functional; conditions: NCI-H226, 48 h, read-out: GI
SF-539 = assay: Growth inhibition of human SF539 cells at 10^-5 M incubated for 48 hrs by sulforhodamine B assay relative to control; type: functional; conditions: SF-539, 48 h, read-out: GI
SNB-75 = assay: Growth inhibition of human SNB75 cells at 10^-5 M incubated for 48 hrs by sulforhodamine B assay relative to control; type: functional; conditions: SNB-75, 48 h, read-out: GI
LOX IMVI = assay: Growth inhibition of human LOXIMVI cells at 10^-5 M incubated for 48 hrs by sulforhodamine B assay relative to control; type: functional; conditions: read-out: GI
SK-MEL-5 = assay: Growth inhibition of human SK-MEL-5 cells at 10^-5 M incubated for 48 hrs by sulforhodamine B assay relative to control; type: functional; conditions: SK-MEL-5, 48 h, read-out: GI
IGROV-1 [7] = assay: Growth inhibition of human IGROV1 cells at 10^-5 M incubated for 48 hrs by sulforhodamine B assay relative to control; type: functional; conditions: IGROV-1, 48 h, read-out: GI
A498 = assay: Growth inhibition of human A498 cells at 10^-5 M incubated for 48 hrs by sulforhodamine B assay relative to control; type: functional; conditions: A498, 48 h, read-out: GI
UO-31 [8] = assay: Growth inhibition of human UO31 cells at 10^-5 M incubated for 48 hrs by sulforhodamine B assay relative to control; type: functional; conditions: UO-31, 48 h, read-out: GI
PC-3 = assay: Growth inhibition of human PC3 cells at 10^-5 M incubated for 48 hrs by sulforhodamine B assay relative to control; type: functional; conditions: PC-3, 48 h, read-out: GI
MCF7 = assay: Growth inhibition of human MCF7 cells at 10^-5 M incubated for 48 hrs by sulforhodamine B assay relative to control; type: functional; conditions: MCF7, 48 h, read-out: GI
MDA-MB-231 = assay: Growth inhibition of human MDA-MB-231 cells at 10^-5 M incubated for 48 hrs by sulforhodamine B assay relative to control; type: functional; conditions: MDA-MB-231, 48 h, read-out: GI
T47D = assay: Growth inhibition of human T47D cells at 10^-5 M incubated for 48 hrs by sulforhodamine B assay relative to control; type: functional; conditions: read-out: GI
MDA-MB-468 [9] = assay: Growth inhibition of human MDA-MB-468 cells at 10^-5 M incubated for 48 hrs by sulforhodamine B assay relative to control; type: functional; conditions: MDA-MB-468, 48 h, read-out: GI
UO-31 [10] = assay: Potency index, ratio of doxorubicin IC50 to compound IC50 for antiproliferative activity against human UO31 cells; type: functional
NCI-H226 [11] = assay: Potency index, ratio of doxorubicin IC50 to compound IC50 for antiproliferative activity against human NCI-H226 cells; type: functional
IGROV-1 [12] = assay: Potency index, ratio of doxorubicin IC50 to compound IC50 for antiproliferative activity against human IGROV1 cells; type: functional
NCI-H226 [13] = assay: Antiproliferative activity against human NCI-H226 cells after 48 hrs by SRB assay; type: functional; conditions: NCI-H226, 48 h, read-out: LC50 (the source's name)
IGROV-1 [14] = assay: Antiproliferative activity against human IGROV1 cells after 48 hrs by SRB assay; type: functional; conditions: IGROV-1, 48 h, read-out: LC50 (the source's name)
UO-31 [15] = assay: Antiproliferative activity against human UO31 cells after 48 hrs by SRB assay; type: functional; conditions: UO-31, 48 h
UO-31 [16] = assay: Cell cycle arrest in human UO31 cells assessed as accumulation at G1 phase at 0.72 uM after 24 hrs by propidium iodide staining based flow cytometry (reference value: 69.55%); type: functional
UO-31 [17] = assay: Cell cycle arrest in human UO31 cells assessed as accumulation at G2 phase at 0.72 uM after 24 hrs by propidium iodide staining based flow cytometry (reference value: 5.49%); type: functional
UO-31 [18] = assay: Cell cycle arrest in human UO31 cells assessed as accumulation at S phase at 0.72 uM after 24 hrs by propidium iodide staining based flow cytometry (reference value: 24.47%); type: functional
UO-31 [19] = assay: Cell cycle arrest in human UO31 cells assessed as apoptotic cells at 0.72 uM after 24 hrs by propidium iodide staining based flow cytometry (reference value: 0.49%); type: functional
UO-31 [20] = assay: Cell cycle arrest in human UO31 cells assessed as accumulation at pre-G1 phase at 0.72 uM after 24 hrs by propidium iodide staining based flow cytometry relative to control; type: functional
UO-31 [21] = assay: Cell cycle arrest in human UO31 cells assessed as accumulation at G2/M phase at 0.72 uM after 24 hrs by propidium iodide staining based flow cytometry relative to control; type: functional
UO-31 [22] = assay: Induction of apoptosis in human UO31 cells assessed as live cells at 0.72 uM after 24 hrs by Annexin V-FITC/propidium iodide staining based low cytometry (reference value: 97.84%); type: functional
UO-31 [23] = assay: Induction of apoptosis in human UO31 cells assessed as early apoptotic cells at 0.72 uM after 24 hrs by Annexin V-FITC/propidium iodide staining based flow cytometry (reference value: 0.19%); type: functional
UO-31 [24] = assay: Induction of apoptosis in human UO31 cells assessed as late apoptotic cells at 0.72 uM after 24 hrs by Annexin V-FITC/propidium iodide staining based flow cytometry (reference value: 0.22%); type: functional
UO-31 [25] = assay: Induction of apoptosis in human UO31 cells assessed as necrotic cells at 0.72 uM after 24 hrs by Annexin V-FITC/propidium iodide staining based flow cytometry (reference value: 0.08%); type: functional
UO-31 [26] = assay: Induction of apoptosis in human UO31 cells assessed as caspase-3 activation by measuring active caspase-3 level at 0.72 uM by […] (reference value: 66 pg/ml); type: functional
DNA topoisomerase 2-beta [27] = molecular target: T1, DNA topoisomerase 2-beta (Homo sapiens, UniProt Q02880); assay: Inhibition of human topoisomerase-2B after 2 hrs by ELISA
T1 sequence (Q02880 whole entry): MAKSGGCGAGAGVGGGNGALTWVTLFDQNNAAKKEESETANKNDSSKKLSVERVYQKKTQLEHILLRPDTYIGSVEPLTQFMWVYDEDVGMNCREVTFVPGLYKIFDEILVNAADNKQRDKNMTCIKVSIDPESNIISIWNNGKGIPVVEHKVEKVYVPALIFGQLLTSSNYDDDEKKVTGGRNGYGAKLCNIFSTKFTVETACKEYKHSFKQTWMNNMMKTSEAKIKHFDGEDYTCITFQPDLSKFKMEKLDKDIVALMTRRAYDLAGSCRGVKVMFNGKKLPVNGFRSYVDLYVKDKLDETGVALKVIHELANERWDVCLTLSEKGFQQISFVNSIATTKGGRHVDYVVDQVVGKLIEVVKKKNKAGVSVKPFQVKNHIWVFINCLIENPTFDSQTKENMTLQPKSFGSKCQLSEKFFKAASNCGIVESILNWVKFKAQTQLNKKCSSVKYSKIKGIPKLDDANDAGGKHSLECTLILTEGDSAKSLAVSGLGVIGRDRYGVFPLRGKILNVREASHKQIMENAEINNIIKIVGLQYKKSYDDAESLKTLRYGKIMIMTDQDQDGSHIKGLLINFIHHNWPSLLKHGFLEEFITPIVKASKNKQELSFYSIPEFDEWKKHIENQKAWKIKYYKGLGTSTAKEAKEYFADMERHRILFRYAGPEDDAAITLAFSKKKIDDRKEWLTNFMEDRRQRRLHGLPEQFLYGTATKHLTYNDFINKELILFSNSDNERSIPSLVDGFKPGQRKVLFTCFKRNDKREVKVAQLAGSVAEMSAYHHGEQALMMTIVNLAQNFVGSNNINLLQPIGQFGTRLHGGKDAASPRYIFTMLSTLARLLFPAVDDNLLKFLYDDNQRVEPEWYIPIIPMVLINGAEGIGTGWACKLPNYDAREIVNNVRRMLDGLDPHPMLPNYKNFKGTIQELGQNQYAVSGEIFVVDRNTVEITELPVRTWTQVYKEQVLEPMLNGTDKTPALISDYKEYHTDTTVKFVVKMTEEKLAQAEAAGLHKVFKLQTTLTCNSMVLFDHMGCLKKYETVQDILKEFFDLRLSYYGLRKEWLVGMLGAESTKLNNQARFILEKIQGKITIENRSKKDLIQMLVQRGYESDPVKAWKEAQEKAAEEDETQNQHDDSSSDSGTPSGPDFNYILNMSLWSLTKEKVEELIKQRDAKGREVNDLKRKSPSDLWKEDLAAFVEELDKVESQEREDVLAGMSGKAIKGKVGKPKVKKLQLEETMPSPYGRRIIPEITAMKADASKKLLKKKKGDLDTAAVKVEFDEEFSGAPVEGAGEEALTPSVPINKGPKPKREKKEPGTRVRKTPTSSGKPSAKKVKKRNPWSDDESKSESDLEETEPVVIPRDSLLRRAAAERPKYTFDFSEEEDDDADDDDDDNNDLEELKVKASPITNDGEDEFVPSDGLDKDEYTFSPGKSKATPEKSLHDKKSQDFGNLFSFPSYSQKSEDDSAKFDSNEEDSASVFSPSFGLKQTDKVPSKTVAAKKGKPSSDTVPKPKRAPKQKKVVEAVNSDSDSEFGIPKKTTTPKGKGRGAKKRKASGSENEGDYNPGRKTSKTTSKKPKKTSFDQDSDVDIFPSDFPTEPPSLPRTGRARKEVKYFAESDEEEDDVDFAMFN

DNA topoisomerase 2-beta [28] = molecular target: T1, DNA topoisomerase 2-beta; assay: Potency index, ratio of doxorubicin IC50 to compound IC50 for inhibition of human topoisomerase-2B
DNA topoisomerase 2-beta [29] = molecular target: T1, DNA topoisomerase 2-beta; assay: Potency index, ratio of amsacrine IC50 to compound IC50 for inhibition of human topoisomerase-2B
Bacillus subtilis = assay: Antibacterial activity against Bacillus subtilis at 37 degC measured after 24 hrs by agar disc diffusion method; type: functional
Staphylococcus aureus = assay: Antibacterial activity against Staphylococcus aureus at 37 degC measured after 24 hrs by agar disc diffusion method; type: functional
Escherichia coli = assay: Antibacterial activity against Escherichia coli at 37 degC measured after 24 hrs by agar disc diffusion method; type: functional
Pseudomonas aeruginosa = assay: Antibacterial activity against Pseudomonas aeruginosa at 37 degC measured after 24 hrs by agar disc diffusion method; type: functional

COc1cccc2c1C(=O)c1c(O)c3c(c(O)c1C2=O)C[C@@](O)(C(=O)CO)C[C@@H]3O[C@H]1C[C@H](N)[C@H](O)[C@H](C)O1 [DOXORUBICIN]
IC50 (HL-60): 8.91 µM
IC50 (NCI-H226 [1]): 5.07 µM
IC50 (IGROV-1 [2]): 4360 nM
IC50 (UO-31 [3]): 6.44 µM
IC50 (MDA-MB-468 [4]): 2810 nM
Activity (UO-31 [5]): 375.6 pg/mL

O=C(CN1CCN(c2cc3c(cc2F)c(=O)c(C(=O)O)cn3C2CC2)CC1)N/N=C/c1cc2ccccc2[nH]1
inhibition of growth at 10 µM (CCRF-CEM): < 20%
inhibition of growth at 10 µM (HL-60(TB)): < 20%
inhibition of growth at 10 µM (K562): < 20%
inhibition of growth at 10 µM (MOLT-4): < 20%
inhibition of growth at 10 µM (RPMI-8226): < 20%
inhibition of growth at 10 µM (HOP-62): 29%
inhibition of growth at 10 µM (HOP-92): 29.8%
inhibition of growth at 10 µM (NCI-H226 [6]): 34.4%
inhibition of growth at 10 µM (SF-539): < 20%
inhibition of growth at 10 µM (SNB-75): < 20%
inhibition of growth at 10 µM (LOX IMVI): 36.6%
inhibition of growth at 10 µM (SK-MEL-5): < 20%
inhibition of growth at 10 µM (IGROV-1 [7]): 43.5%
inhibition of growth at 10 µM (A498): < 20%
inhibition of growth at 10 µM (UO-31 [8]): 34.1%
inhibition of growth at 10 µM (PC-3): 20.3%
inhibition of growth at 10 µM (MCF7): < 20%
inhibition of growth at 10 µM (MDA-MB-231): 28.1%
inhibition of growth at 10 µM (T47D): 25.5%
inhibition of growth at 10 µM (MDA-MB-468 [9]): < 20%
IC50 (NCI-H226 [1]): 1.02 µM
IC50 (IGROV-1 [2]): 750 nM
IC50 (UO-31 [3]): 0.72 µM
Ratio IC50 (UO-31 [10]): 1.5 - 9
Ratio IC50 (NCI-H226 [11]): 4.9
Ratio IC50 (IGROV-1 [12]): 5.8
CC50 (NCI-H226 [13]): 15.4 µM
CC50 (IGROV-1 [14]): 18.8 µM
LC50 (UO-31 [15]): 15.1 µM
Activity (UO-31 [16]): 62.64%
Activity (UO-31 [17]): 11.32%
Activity (UO-31 [18]): 21.69%
Activity (UO-31 [19]): 4.35%
fold change (FC) (UO-31 [20]): 8.8
fold change (FC) (UO-31 [21]): 2.06
Activity (UO-31 [22]): 93.84%
Activity (UO-31 [23]): 2.14%
Activity (UO-31 [24]): 1.88%
Activity (UO-31 [25]): 0.33%
Activity (UO-31 [26]): 293.6 pg/mL
IC50 (DNA topoisomerase 2-beta [27]): 860 nM
Ratio IC50 (DNA topoisomerase 2-beta [28]): 4
Ratio IC50 (DNA topoisomerase 2-beta [29]): 3
diameter of the inhibition zone (DIZ) (Bacillus subtilis): 27 mm
diameter of the inhibition zone (DIZ) (Staphylococcus aureus): 25 mm
diameter of the inhibition zone (DIZ) (Escherichia coli): 25 mm
diameter of the inhibition zone (DIZ) (Pseudomonas aeruginosa): 27 mm
